# Values of other authors as cited in patent publication US20110104282A1, “New Therapy of Treatment of the Irritable Bowel Syndrome” (Karolinska Institutet Innovations AB, priority 2008, published 2011).
# Settings: on occasion
structure (smiles),measurement,value
N[C@@H](Cc1c[nH]c2ccccc12)C(=O)O [tryptophan],adverse side effects of high doses,intestinal discomfort and nausea
